The results in this text go back to patent US9193819B2, “Polymers, substrates, methods for making such, and devices comprising the same” (Avertica, Inc., priority 2013, dated 2015).

Counter-ions that a name gives are not always drawn.

The first assay has as its system mushroom tyrosinase (polyphenol oxidase) Sigma T3824. The assay is described as follows: Testing of polymer production in enzymatic tyrosinase (polyphenol oxidase) reaction. Type of assay: biochemical. On the set-up: key: +++: Reacted within about 1 hour; ++: reacted within about 3 hours; +: reacted within about 24 hours; +/−: inconclusive results; −: no reaction. Particulars: approx. 50 mM potassium phosphate buffer pH 6.5, approx. 5 mM substrate, 100 to 10,000 units enzyme, observed over 24 hours. As for the experimental part:
All reactions were carried out in approximately 50 mM potassium phosphate buffer, pH 6.5 with approximately 5 mM substrate and mushroom tyrosinase (polyphenol oxidase) Sigma T3824 in an amount of 100 to 10,000 units. Reaction volumes varied from 200 μl to 2 ml. In cases where substrates were not completely solubilized, then a saturated solution was used as the limit of solubility. In some cases, a solution of DMSO was used to increase solubility of the substrates. […] The reactions were observed over a 24 hour period for the production of polymers, and the presence and color of polymer and solution was recorded.
The production of polymers in each reaction was visible as a precipitate in the well of a 96 well plate or in the reaction mixture on a glass slide.
As for `Oc1ccc2cc(O)ccc2c1` [2,6 dihydroxnaphthalene], the “Result (polymer production in tyrosinase reaction)” value (“Result” for short) is recorded as “+ (reacted within about 24 hours)”.
Still for that read-out and setting: with `c1ccc2[nH]ccc2c1` [Indole] the entry was “−”.
Take `Cl.NCCc1ccccc1` [Beta phenylethylamine HCL]: the “Result” value is recorded as “+/−”.
The same measure, in the same setting: with `Oc1ccc2cc[nH]c2c1` [6 Hydroxyindole] the entry was “++ (reacted within about 3 hours)”.
Take `Cl.NCCc1ccc(O)cc1` [Tyramine HCl]: the “Result” value was “+++ (Reacted within about 1 hour)”.
On the same count and under the same terms, with `N[C@@H](Cc1ccc(O)cc1)C(=O)O` [Tyrosine] the entry was “++ (reacted within about 3 hours)”; with `CN[C@@H](Cc1ccc(O)cc1)C(=O)O` [N-methyl tyrosine], “++ (reacted within about 3 hours)”; with `NCCc1ccc(O)cc1` [Tyramine], “+++ (Reacted within about 1 hour)”.
`Oc1ccc2[nH]ccc2c1` [5-hydroxyindole]: the “Result” value is on record as “+++ (Reacted within about 1 hour)”.

The same assay, now with this note: as E1, substrate (or a marked component) dissolved in 20% DMSO.
For `CC1=NCCc2c1[nH]c1cc(O)ccc21` [Harmalol HCl dehydrate], the “Result” value was “−”.
On the same count and under the same terms, with `Oc1ccc2c(c1)[nH]c1ccccc12` [2 Hydroxy carbazole] the entry was “−”; with `Oc1ccc(-c2cc(-c3ccc(O)cc3)cc(-c3ccc(O)cc3)c2)cc1` [1,3,5 Tris(4hydroxyphenyl)benzene], “+ (reacted within about 24 hours)”.
